One test concerns KCC2. The test is described as follows: FluxOR fluorescence based thallium (Tl+) influx assay on KCC2-expressing HEK293 cells. It is filed as cell-based. Conditions: HEK KCC2 compared to WT HEK cells, non-cytotoxic dose range. As to the method:
Wild-type or KCC2-expressing Human Embryonic Kidney (HEK) 293 cells (provided by Prof. Eric Delpire Department of Anesthesiology, Vanderbilt University Medical Center, Nashville, Tenn.) were grown up to 80-90% confluence in DMEM/Ham's F-12 (1:1) (Life technologies, Carlsbad, Calif., USA) supplemented with 10% FBS (Life technologies), 50 units/mL penicillin, and 50 µg/mL streptomycin (Life technologies). KCC2-expressing clones were under puromycin selection (20 μg/ml, Life technologies).
The FluxOR™ potassium ion channel assay (Life Technologies Carlsbad, Calif., USA) was performed as outlined in the product information sheet and an earlier published study (Delpire et al., 2009, Proc. Natl. Acad. Sci. USA, 106, 5383-88) to assess KCC2 activity, and adapted to semi-automated high throughput screening. The experiment was performed in the presence of ouabain 200 μM and bumetanide 10 μM in all buffers to block the Na^+/K^+ pump and NKCC1 cotransporters, respectively. Briefly, cells in suspension were incubated in the loading buffer containing the dye at room temperature for 90 min (1/2000 dilution of FluxOR reagent) at the density of 100.000 cells/75 μl, then centrifugated and resuspended in Assay buffer at the same cell density. A number of 100.000 cells (75 μl) were manually handled in each well to the 96-wells black-walled, μclear-bottom plates (Greiner Bio-One, Monroe, N.C., USA) and 5 μl of chemical compounds 1-8 at different concentrations in PBS 1% DMSO (5, 30 and 50 μM) were added to the plates using the Biomek® NX Laboratory automation workstation (Beckman Coulter, Villepinte, France). After 15 minutes incubation, baseline fluorescent signal was measured with the Polarstar omega microplate reader (490 nm excitation and 520 nm emission, BMG Labtech). Then 20 μL per well of 5× thallium stimulus buffer (final concentrations: Tl^+: 2 mM, K^+: 10 mM) was injected and fluorescent signal was read 30 minutes later.
For each plate, 2 columns were dedicated to controls (cell density range from 0.25 to 1.10^5 cells; loading buffer as blank; untreated or treated with NEM (33 μM, for 15 min) wild-type and KCC2-expressing HEK293 cells).
Baseline fluorescent value was subtracted from the fluorescent value measured 30 min after stimulus buffer injection for each well, and this difference was normalized to the number of cells. […] Values converted to percentages such that the maximum of ratio is 100%.

The next test relates to lumbar motoneurons (MNs). Nature of the test: Intracellular recordings of lumbar motoneurons in the in vitro spinal cord preparation (EIPSP). It is filed as cell-based, rat. As to conditions: 10 μM. The text has this: Spinal cords isolated from neonatal rats on post natal day 4 or 5 were dissected together with spinal roots. Briefly, after decapitation and evisceration, the spinal cord was exposed by dorsal laminectomy and acute removal of the dura in a cold artificial cerebrospinal fluid (ACSF; containing (in mM): 130 NaCl, 4 KCl, 3.75 CaCl2, 1.3 MgSO4, 0.58 NaH2PO4, 25 NaHCO3 and 10 glucose (all compounds were from Sigma); oxygenated with 95% O2/5% CO2, pH=7.4). The cord, from sacral segments up to T8, was then removed from the vertebral column together with peripheral roots. The preparation was then transferred to the recording chamber where it was pinned down, ventral side up, in sylgard (Dow-Corning; USA)-covered recording chamber, and continuously perfused with the ACSF solution. After removing the pia, we recorded lumbar motoneurons (MNs) intracellularly using glass microelectrodes filled with 2 M K-acetate (70 to 100-MΩ resistance). We recorded intracellular potentials in the discontinuous current-clamp (DCC) mode (Axoclamp 2B amplifier; Digidata 1200 interface; pClamp9 software; Axon Instruments, Sunnyvale, Calif., USA). We used glass suction electrode to stimulate the ipsilateral ventral funiculus 2 to 3 segments rostral to the recorded one. Such stimulations induced GABAA- and Gly-mediated Inhibitory Postsynaptic Potentials (IPSPs) in the presence of DL-2-amino-5-phosphonovaleric acid (DL-APV, 50 μM) and 6-cyano-7-nitroquinoxaline-2,3-dione (CNQX, 10 μM) (Bos et al., 2013; Boulenguez et al., 2010; Jean-Xavier et al., 2006). We recorded IPSPs at various holding potentials (500-ms-long current pulses) and collected at least 20 values for each MN. We measured and plotted amplitudes of IPSPs against holding potentials and obtained EIPSP from the regression line.
In the in vitro spinal cord preparation, isolated from neonatal rat, a way to investigate KCC2 function is provided by recording motoneurons (MNs) intracellularly and measuring the chloride equilibrium potential that is given by the reversal potential of inhibitory synaptic potentials (EIPSP). The more hyperpolarized the value of EIPSP, the lower the intracellular concentration of chloride ions and, as a result, the stronger the KCC2 function. The inventors have examined the effect of 10 μM Prochlorperazine (2) on EIPSP of lumbar MNs in P4-6 rats (FIG. 3). It hyperpolarized EIPSP within 5-10 min and measurements were done 20-25 min after the onset of Prochlorperazine (2) application.

The test system of the next test is paw withdrawal threshold. The test is described as follows: Von Frey test following spinal cord injury (mechanical hyperalgesia). It is filed as in vivo, rat. As to conditions: for effect on mechanical hyperalgesia (paw withdrawal threshold): 21 days after injury. As to the method: Thoracic spinal unilateral hemisection in rats was used as a model of SCI. Adult female Wistar Rats (Charles River) were anaesthetized intraperitoneally with 50 mg/kg ketamine (Imalgen®, Merial, Duluth, Ga., USA) and 0.25 mg/kg Medetomidine (Domitor®, Janssen Pharmaceutica, Beerse, Belgium). The antibiotic Amoxycyline (Duphamox LA®, Pfizer, 150 mg/kg) was injected subcutaneously before the surgery. The skin was cut longitudinally over T8-T10 vertebra and a local anesthetic (2% Procaine hydrochloride, Pharmy H, Saint-Germain-en-Laye, France) was injected intramuscularly before cuting the paravertebral muscles. A laminectomy was performed at vertebral segment T9. The spinal cord was hemisected on the left side with microscissors at the level of the T8 spinal segment. Finally, paravertebral muscles and skin were sutured and rats were treated with buprenorphine for analgesia (1 injection before awakening from anaesthesia and 2 more injections over the next 24 h period). Aspirin was diluted in their water bottles for 3 days (aspegic, 200 mg in 150 ml). The rats weight, temperature and water intake were checked and their bladder was emptied manually twice a day until recovery of autonomy.
At day 21 post lesion, the rats were tested once with Von Frey hair and plantar test in order to have their baseline values. […] Then the effects of the drug was measured alternatively on mechanical and thermal hyperalgesia every 15 min, that is at […] after injection, respectively.
The plantar surface of the left, then right hind paws were probed using von Frey monofilaments £Bioseb, Paris, France) which apply different calibrated forces when they bent. The test started by applying a Von Frey hair of 8 g for 3 sec, and the 50% withdrawal thresholds of each hindlimb in response to tactile stimulation were measured using the up and down method (Chaplan et al., 1994).

Regarding `CN1CCN(CCCN2c3ccccc3Sc3ccc(Cl)cc32)CC1` [compound 2, 2-chloro-10-[3-(4-methyl-1-piperazinyl)propyl]-10H-phenothiazine], the “specific activation of KCC2 across a dose range” value with KCC2 is “activate specifically KCC2 in a dose dependant manner”. Also, in the test on lumbar motoneurons (MNs) (20-25 min, n=6), the “change of driving force (EIPSP-Vrest)” value is −3.5 mV and the “effect on resting membrane potential (Vrest)” value is reported as “no significant impact”. Besides, in the test with lumbar motoneurons (MNs) (20-25 min after onset of application, P4-6 rats, n=6), the “hyperpolarizing shift of EIPSP compared to control” value was −3.3 mV. Moreover, the “time to hyperpolarization of EIPSP” value with lumbar motoneurons (MNs) (P4-6 rats) was 5 to 10 min. Further, in the test on paw withdrawal threshold (i.p. or i.v., Von Frey test), the “time after injection at which effects were significant” value was 40 min. For the same compound, the “effect on mechanical hyperalgesia (paw withdrawal threshold)” value in the test with paw withdrawal threshold (intraperitoneally 2 mg/kg) is reported as “temporarily reduces mechanical hyperalgesia”. Further, the “effect on mechanical hyperalgesia (paw withdrawal threshold)” value in the test with paw withdrawal threshold (intravenously 50 ng/kg) is “temporarily reduces mechanical hyperalgesia”.

The record behind these values is US9814727B2, “Piperazine phenothiazine derivatives for treating spasticity” (UNIVERSITE D'AIX-MARSEILLE, priority 2014, dated 2017).
